# Like-named read-outs stand apart in the source and are kept apart here. Starred links: 1 amine or outer side, 2 acyl side, 3 side chain; linkers in the order of their positions; H or OH if unused. Positions of bridges follow the written chain, without caps; N, C: chain ends. Non-standard residues stand in square brackets, D forms with d. Residues, ends and D or L forms follow the SMILES beside them. *: point of attachment. hTyr(3S-OH,4S-OH,3'-OSO3H) = N[C@H](C(=O)O)[C@H](O)[C@@H](O)c1ccc(O)c(OS(=O)(=O)O)c1; Orn(4R-OH,5R-OH) = O=C([C@H](C[C@@H](O)[C@@H](O)N[*:3])N[*:1])[*:2]; Pro(3S-OH,4S-Me) = C[C@H]1CN[C@H](C(=O)O)[C@H]1O; X1 = CCCCCOc1ccc(-c2cc(-c3ccc(C(=O)*)cc3)no2)cc1; Gln(3R-OH) = NC(=O)C[C@@H](O)[C@H](N)C(=O)O; Hyp = O=C(O)[C@@H]1C[C@@H](O)CN1
# What was measured:
# [1] = system: C. parapsilosis; assay: Antifungal susceptibility testing (CLSI M27-S4); conditions: WT (19 isolates); 24 hr
# Method: (§1) Antifungal susceptibility testing. Antifungal susceptibility testing was performed in triplicate for a collection of 95 Candida strains (20 C. albicans, 20 C. glabrata, 2 C. dubliniensis, 15 C. krusei, 19 C. parapsilosis, and 19 C. tropicalis) that included 30 isolates showing an echinocandin resistance (ER) phenotype (caspofungin-resistant) in accordance with the guidelines described in the Clinical and Laboratory Standards Institute (CLSI) document M27-S4. […] Stock solutions of the drugs were kept at −86° C.
# [2] = system: C. parapsilosis vaginal isolates; assay: Susceptibility testing of VVC clinical isolates at pH 7 and 4 (CLSI M27-A3); format: cell-based, Candida parapsilosis
# [3] = molecular target: 1,3-β-D-glucan synthase from C. albicans (Candida albicans, UniProt O13428, F641S); assay: Glucan synthase (GS) inhibition assay; conditions: IC50, DPL18; Fks1 F641S
# Sequence of 1,3-β-D-glucan synthase from C. albicans (Candida albicans, UniProt O13428, F641S) (O13428 entry or part of it F641S): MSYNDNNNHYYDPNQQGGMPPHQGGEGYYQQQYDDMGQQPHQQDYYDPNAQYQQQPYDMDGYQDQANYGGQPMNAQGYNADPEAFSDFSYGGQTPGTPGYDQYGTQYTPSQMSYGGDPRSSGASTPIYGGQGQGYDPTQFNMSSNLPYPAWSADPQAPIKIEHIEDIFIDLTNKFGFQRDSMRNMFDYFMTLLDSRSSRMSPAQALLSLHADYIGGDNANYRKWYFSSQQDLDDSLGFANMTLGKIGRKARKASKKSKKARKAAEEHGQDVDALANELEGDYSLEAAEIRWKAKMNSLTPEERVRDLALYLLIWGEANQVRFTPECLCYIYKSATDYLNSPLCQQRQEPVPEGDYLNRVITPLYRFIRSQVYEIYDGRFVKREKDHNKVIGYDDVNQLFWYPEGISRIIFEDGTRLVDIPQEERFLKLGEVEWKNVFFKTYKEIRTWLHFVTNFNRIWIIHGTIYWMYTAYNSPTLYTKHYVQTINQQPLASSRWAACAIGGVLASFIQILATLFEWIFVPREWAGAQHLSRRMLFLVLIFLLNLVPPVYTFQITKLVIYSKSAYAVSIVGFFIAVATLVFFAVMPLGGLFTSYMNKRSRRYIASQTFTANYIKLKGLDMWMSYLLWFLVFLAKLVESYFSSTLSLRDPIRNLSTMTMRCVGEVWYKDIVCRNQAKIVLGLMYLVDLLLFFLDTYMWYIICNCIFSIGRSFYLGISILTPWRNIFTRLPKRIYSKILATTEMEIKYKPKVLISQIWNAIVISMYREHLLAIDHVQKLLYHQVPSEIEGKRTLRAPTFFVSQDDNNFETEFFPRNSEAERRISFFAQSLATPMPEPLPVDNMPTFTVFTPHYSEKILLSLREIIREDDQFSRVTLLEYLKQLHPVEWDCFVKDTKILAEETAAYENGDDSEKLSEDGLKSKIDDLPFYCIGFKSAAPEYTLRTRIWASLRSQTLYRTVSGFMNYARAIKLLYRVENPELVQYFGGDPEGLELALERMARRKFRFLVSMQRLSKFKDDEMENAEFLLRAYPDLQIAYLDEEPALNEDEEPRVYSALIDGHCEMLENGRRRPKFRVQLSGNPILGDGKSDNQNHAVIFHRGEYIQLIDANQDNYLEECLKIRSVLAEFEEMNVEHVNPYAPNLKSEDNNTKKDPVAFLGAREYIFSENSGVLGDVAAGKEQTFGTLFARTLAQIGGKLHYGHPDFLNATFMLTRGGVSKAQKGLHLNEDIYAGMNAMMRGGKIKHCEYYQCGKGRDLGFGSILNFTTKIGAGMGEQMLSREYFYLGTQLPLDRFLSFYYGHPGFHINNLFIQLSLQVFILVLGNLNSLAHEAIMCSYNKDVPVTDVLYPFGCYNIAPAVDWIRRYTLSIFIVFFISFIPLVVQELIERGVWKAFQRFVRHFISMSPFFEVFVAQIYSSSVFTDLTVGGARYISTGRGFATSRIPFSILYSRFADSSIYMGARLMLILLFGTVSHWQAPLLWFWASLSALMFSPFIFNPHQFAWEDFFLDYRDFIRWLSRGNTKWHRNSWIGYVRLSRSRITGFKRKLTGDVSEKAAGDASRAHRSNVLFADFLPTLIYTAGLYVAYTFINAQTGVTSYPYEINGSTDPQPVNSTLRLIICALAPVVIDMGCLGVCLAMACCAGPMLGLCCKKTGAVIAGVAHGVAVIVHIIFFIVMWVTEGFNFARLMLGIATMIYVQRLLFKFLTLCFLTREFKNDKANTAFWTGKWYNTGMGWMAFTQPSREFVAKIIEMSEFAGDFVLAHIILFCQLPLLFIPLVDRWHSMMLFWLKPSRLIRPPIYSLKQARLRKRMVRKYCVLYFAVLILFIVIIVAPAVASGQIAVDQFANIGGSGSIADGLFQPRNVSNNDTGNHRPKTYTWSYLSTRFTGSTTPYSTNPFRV
# [4] = molecular target: 1,3-β-D-glucan synthase from C. albicans (Candida albicans, UniProt O13428); assay: Glucan synthase (GS) inhibition assay
# [5] = molecular target: 1,3-β-D-glucan synthase from C. albicans (Candida albicans, UniProt O13428, S645P); assay: Glucan synthase (GS) inhibition assay; conditions: IC50, DPL20; Fks1 S645P
# Sequence of 1,3-β-D-glucan synthase from C. albicans (Candida albicans, UniProt O13428, S645P) (O13428 entry or part of it S645P): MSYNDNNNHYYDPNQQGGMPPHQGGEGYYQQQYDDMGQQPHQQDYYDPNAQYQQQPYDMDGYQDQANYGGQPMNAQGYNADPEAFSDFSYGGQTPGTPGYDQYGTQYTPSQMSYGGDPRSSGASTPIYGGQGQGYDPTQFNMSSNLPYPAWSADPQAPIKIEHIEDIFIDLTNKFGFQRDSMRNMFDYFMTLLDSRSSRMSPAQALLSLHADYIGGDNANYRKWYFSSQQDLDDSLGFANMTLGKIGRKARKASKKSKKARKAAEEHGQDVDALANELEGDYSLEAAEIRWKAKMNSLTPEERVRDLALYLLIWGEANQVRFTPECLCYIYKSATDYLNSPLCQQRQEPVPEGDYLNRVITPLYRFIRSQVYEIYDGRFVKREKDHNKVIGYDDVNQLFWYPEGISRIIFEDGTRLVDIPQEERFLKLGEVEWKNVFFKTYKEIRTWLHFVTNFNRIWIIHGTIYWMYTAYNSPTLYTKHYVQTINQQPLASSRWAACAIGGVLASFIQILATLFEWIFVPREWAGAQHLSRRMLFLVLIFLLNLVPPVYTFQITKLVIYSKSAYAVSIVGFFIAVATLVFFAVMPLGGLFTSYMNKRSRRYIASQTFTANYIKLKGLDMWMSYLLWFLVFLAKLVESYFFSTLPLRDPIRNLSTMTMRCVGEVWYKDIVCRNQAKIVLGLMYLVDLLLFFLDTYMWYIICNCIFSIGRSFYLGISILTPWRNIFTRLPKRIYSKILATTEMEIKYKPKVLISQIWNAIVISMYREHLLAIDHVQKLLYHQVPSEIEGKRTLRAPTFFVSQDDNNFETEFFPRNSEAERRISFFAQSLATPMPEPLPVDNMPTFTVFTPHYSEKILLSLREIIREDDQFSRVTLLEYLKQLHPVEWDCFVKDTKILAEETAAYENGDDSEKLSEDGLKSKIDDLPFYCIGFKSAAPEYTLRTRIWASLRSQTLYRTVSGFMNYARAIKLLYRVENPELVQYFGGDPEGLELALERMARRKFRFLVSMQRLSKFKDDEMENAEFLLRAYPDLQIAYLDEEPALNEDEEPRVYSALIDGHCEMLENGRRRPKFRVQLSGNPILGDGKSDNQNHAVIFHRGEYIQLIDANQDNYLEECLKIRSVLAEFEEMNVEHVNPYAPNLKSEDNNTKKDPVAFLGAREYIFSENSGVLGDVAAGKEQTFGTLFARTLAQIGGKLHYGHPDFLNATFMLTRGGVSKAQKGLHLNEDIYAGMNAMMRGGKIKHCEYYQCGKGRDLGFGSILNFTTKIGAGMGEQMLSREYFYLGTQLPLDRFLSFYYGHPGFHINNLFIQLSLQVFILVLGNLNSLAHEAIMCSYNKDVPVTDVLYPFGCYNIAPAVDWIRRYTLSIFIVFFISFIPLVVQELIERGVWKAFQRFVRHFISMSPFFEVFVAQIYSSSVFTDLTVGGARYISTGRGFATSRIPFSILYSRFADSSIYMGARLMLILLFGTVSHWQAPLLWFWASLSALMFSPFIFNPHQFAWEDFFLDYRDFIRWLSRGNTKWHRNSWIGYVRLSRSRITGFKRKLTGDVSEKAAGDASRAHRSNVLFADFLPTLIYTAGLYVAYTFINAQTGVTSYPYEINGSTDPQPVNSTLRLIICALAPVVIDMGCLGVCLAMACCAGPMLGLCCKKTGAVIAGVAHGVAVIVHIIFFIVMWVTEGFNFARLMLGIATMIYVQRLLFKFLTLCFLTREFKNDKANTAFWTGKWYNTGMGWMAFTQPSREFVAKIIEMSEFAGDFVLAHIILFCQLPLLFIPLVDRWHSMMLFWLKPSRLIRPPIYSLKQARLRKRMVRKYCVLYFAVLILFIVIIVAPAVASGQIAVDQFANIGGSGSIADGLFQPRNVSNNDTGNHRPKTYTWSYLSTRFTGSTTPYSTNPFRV
# [6] = system: Aspergillus fumigatus; assay: Broth microdilution of invasive fungal isolates (CLSI M27-A3/M38-A2), MEC; format: cell-based; conditions: 56 isolates
# [7] = system: C. albicans vaginal isolates; assay: Susceptibility testing of VVC clinical isolates at pH 7 and 4 (CLSI M27-A3); format: cell-based, Candida albicans; conditions: for MIC90 / MIC: Candida albicans; for Number of isolates at MIC 0.25 μg/mL / Number of isolates at MIC 0.5 μg/mL / Number of isolates at MIC 1 μg/mL / Number of isolates at MIC 2 μg/mL / Number of isolates at MIC 4 μg/mL / Number of isolates at MIC ≥4 μg/mL / Number of isolates at MIC 0.125 μg/mL: 60 VVC isolates
# [8] = system: C. albicans; assay: Antifungal susceptibility testing (CLSI M27-S4), WT and echinocandin-resistant isolates; conditions: for MIC median (range): 24 hr
# Method: as §1
# [9] = system: azole-resistant C. albicans (R357); assay: Immunosuppressed rat model of vulvovaginal candidiasis, vaginal CFU; format: in vivo, Candida albicans; conditions: oral 20 mg/kg once daily for three days; days 5 and 12
# [10] = Solubility of test articles in vehicle, visual observation (Table 22); format: physicochemical; conditions: vehicle WFI; formulation 2 mg/mL; visual observation
# Method: Test Articles. […] Amphotericin B and fluconazole were in powder form. Amphotericin B was dissolved in 0.9% NaCl. Fluconazole was dissolved in water (WFI: water for injection).
# [11] = system: C. krusei ATCC 6258, ATCC 14243; assay: Time-kill assay in vagina-simulative medium pH 4.0 (Table 20); format: cell-based, Candida krusei
smiles,measurement,setting,value
"CCCCCOc1ccc(-c2cc(-c3ccc(C(=O)N[C@H]4C[C@@H](O)[C@@H](O)NC(=O)[C@@H]5[C@@H](O)[C@@H](C)CN5C(=O)[C@H]([C@H](O)CC(N)=O)NC(=O)[C@H]([C@H](O)[C@@H](O)c5ccc(O)c(OS(=O)(=O)O)c5)NC(=O)[C@@H]5C[C@@H](O)CN5C(=O)[C@H]([C@@H](C)O)NC4=O)cc3)no2)cc1 [MCF, micafungin] (X1-[Orn(4R-OH,5R-OH)]T[Hyp][hTyr(3S-OH,4S-OH,3'-OSO3H)][Gln(3R-OH)][Pro(3S-OH,4S-Me)]; lactam 1-C)",MIC median (range),[1],4 (1-4) mg/L
same,MIC90,"[2]; 24 h, pH 4",0.5 µg/mL
same,MIC90,"[2]; 24 h, pH 7",1 µg/mL
same,MIC90,"[2]; 48 h, pH 4",1 µg/mL
same,MIC90,"[2]; 48 h, pH 7",2 µg/mL
same,IC50,[3],1400 nM
same,IC50,"[4]; IC50, DPL1002, WT",13.9 nM
same,IC50,"[4]; IC50, glucan synthase, ATCC 90028, WT",14.2 nM
same,IC50,"[4]; glucan synthase, DPL22, Fks1p S645P/S",193 nM
same,IC50,[5],2010 nM
same,Cumulative % of isolates inhibited at MEC 0.015 μg/mL,[6],(96.4) %
same,Cumulative % of isolates inhibited at MEC 0.03 μg/mL,[6],(100.0) %
same,Cumulative % of isolates inhibited at MEC ≤0.008 μg/mL,[6],(28.6) %
same,MEC50,[6],.015 µg/mL
same,MEC90,[6],.015 µg/mL
same,Number of isolates inhibited at MEC 0.015 μg/mL,[6],38
same,Number of isolates inhibited at MEC 0.03 μg/mL,[6],2
same,Number of isolates inhibited at MEC ≤0.008 μg/mL,[6],16
same,MIC90,"[7]; 24 h, pH 4",0.125 µg/mL
same,MIC90,"[7]; 24 h, pH 7",0.008 µg/mL
same,MIC90,"[7]; 48 h, pH 4",0.25 µg/mL
same,MIC,"[7]; 48 h, pH 4, fluconazole-resistant isolate 1, pH 4",0.016 µg/mL
same,MIC,"[7]; 48 h, pH 4, fluconazole-resistant isolate 2, pH 4",0.016 µg/mL
same,MIC,"[7]; 48 h, pH 4, fluconazole-resistant isolate 3, pH 4",0.016 µg/mL
same,MIC,"[7]; 48 h, pH 4, fluconazole-resistant isolate 4, pH 4",0.03 µg/mL
same,MIC,"[7]; 48 h, pH 4, fluconazole-resistant isolate 5, pH 4",0.016 µg/mL
same,MIC,"[7]; 48 h, pH 4, fluconazole-resistant isolate 6, pH 4",0.03 µg/mL
same,MIC,"[7]; 48 h, pH 4, fluconazole-resistant isolate 7, pH 4",0.25 µg/mL
same,MIC,"[7]; 48 h, pH 4, fluconazole-resistant isolate 8, pH 4",0.06 µg/mL
same,MIC,"[7]; 48 h, pH 4, fluconazole-resistant isolate 9, pH 4",0.125 µg/mL
same,MIC,"[7]; 48 h, pH 4, fluconazole-resistant isolate 10, pH 4",0.06 µg/mL
same,MIC90,"[7]; 48 h, pH 7",0.03 µg/mL
same,MIC,"[7]; 48 h, pH 7, fluconazole-resistant isolate 1, pH 7",0.008 µg/mL
same,MIC,"[7]; 48 h, pH 7, fluconazole-resistant isolate 2, pH 7",0.016 µg/mL
same,MIC,"[7]; 48 h, pH 7, fluconazole-resistant isolate 3, pH 7",0.008 µg/mL
same,MIC,"[7]; 48 h, pH 7, fluconazole-resistant isolate 4, pH 7",0.008 µg/mL
same,MIC,"[7]; 48 h, pH 7, fluconazole-resistant isolate 5, pH 7",0.06 µg/mL
same,MIC,"[7]; 48 h, pH 7, fluconazole-resistant isolate 6, pH 7",0.008 µg/mL
same,MIC,"[7]; 48 h, pH 7, fluconazole-resistant isolate 7, pH 7",0.06 µg/mL
same,MIC,"[7]; 48 h, pH 7, fluconazole-resistant isolate 8, pH 7",0.008 µg/mL
same,MIC,"[7]; 48 h, pH 7, fluconazole-resistant isolate 9, pH 7",0.06 µg/mL
same,MIC,"[7]; 48 h, pH 7, fluconazole-resistant isolate 10, pH 7",0.008 µg/mL
same,% of ER isolates with an MIC of ≤0.5 mg/L,[8]; C. albicans ER isolates,40%
same,MIC median (range),[8]; ER (10 isolates),0.50 (0.03-4) mg/L
same,MIC median (range),[8]; WT (10 isolates),<0.03 (<0.03)^ mg/L
"OC(Cn1cncn1)(Cn1cncn1)c1ccc(F)cc1F [FLU, fluconazole]",reduction in vaginal CFU compared with no treatment control,[9],< 1 log-fold
same,MIC90,"[2]; 14 isolates, pH 4, 24 h, read-out: MIC90",8 µg/mL
same,MIC90,"[2]; 14 isolates, pH 4, 48 h, read-out: MIC90",> 64 µg/mL
same,MIC90,"[2]; 14 isolates, pH 7, 48 h, read-out: MIC90",32 µg/mL
same,Solubility,[10],S
same,Number of isolates at MIC 0.25 μg/mL,"[7]; 24 h, pH 4",35
same,Number of isolates at MIC 0.5 μg/mL,"[7]; 24 h, pH 4",13
same,Number of isolates at MIC 1 μg/mL,"[7]; 24 h, pH 4",2
same,Number of isolates at MIC 2 μg/mL,"[7]; 24 h, pH 4",2
same,Number of isolates at MIC 4 μg/mL,"[7]; 24 h, pH 4",1
same,Number of isolates at MIC ≥4 μg/mL,"[7]; 24 h, pH 4",7
same,Number of isolates at MIC 0.125 μg/mL,"[7]; 24 h, pH 7",25
same,Number of isolates at MIC 0.25 μg/mL,"[7]; 24 h, pH 7",19
same,Number of isolates at MIC 0.5 μg/mL,"[7]; 24 h, pH 7",7
same,Number of isolates at MIC 1 μg/mL,"[7]; 24 h, pH 7",1
same,Number of isolates at MIC 2 μg/mL,"[7]; 24 h, pH 7",2
same,Number of isolates at MIC ≥4 μg/mL,"[7]; 24 h, pH 7",6
same,Number of isolates at MIC 0.5 μg/mL,"[7]; 48 h, pH 4",27
same,Number of isolates at MIC 1 μg/mL,"[7]; 48 h, pH 4",13
same,Number of isolates at MIC 2 μg/mL,"[7]; 48 h, pH 4",5
same,Number of isolates at MIC 4 μg/mL,"[7]; 48 h, pH 4",1
same,Number of isolates at MIC ≥4 μg/mL,"[7]; 48 h, pH 4",14
same,Number of isolates at MIC 0.125 μg/mL,"[7]; 48 h, pH 7",3
same,Number of isolates at MIC 0.25 μg/mL,"[7]; 48 h, pH 7",37
same,Number of isolates at MIC 0.5 μg/mL,"[7]; 48 h, pH 7",8
same,Number of isolates at MIC 1 μg/mL,"[7]; 48 h, pH 7",2
same,Number of isolates at MIC 2 μg/mL,"[7]; 48 h, pH 7",1
same,Number of isolates at MIC ≥4 μg/mL,"[7]; 48 h, pH 7",9
same,MIC,"[7]; 48 h, pH 4, fluconazole-resistant isolate 1, pH 4, 48 h, read-out: MIC",> 64 µg/mL
same,MIC,"[7]; 48 h, pH 4, fluconazole-resistant isolate 2, pH 4, 48 h, read-out: MIC",32 µg/mL
same,MIC,"[7]; 48 h, pH 4, fluconazole-resistant isolate 3, pH 4, 48 h, read-out: MIC",> 64 µg/mL
same,MIC,"[7]; 48 h, pH 4, fluconazole-resistant isolate 4, pH 4, 48 h, read-out: MIC",> 64 µg/mL
same,MIC,"[7]; 48 h, pH 4, fluconazole-resistant isolate 5, pH 4, 48 h, read-out: MIC",> 64 µg/mL
same,MIC,"[7]; 48 h, pH 4, fluconazole-resistant isolate 6, pH 4, 48 h, read-out: MIC",> 64 µg/mL
same,MIC,"[7]; 48 h, pH 4, fluconazole-resistant isolate 7, pH 4, 48 h, read-out: MIC",32 µg/mL
same,MIC,"[7]; 48 h, pH 4, fluconazole-resistant isolate 8, pH 4, 48 h, read-out: MIC",> 64 µg/mL
same,MIC,"[7]; 48 h, pH 4, fluconazole-resistant isolate 9, pH 4, 48 h, read-out: MIC",> 64 µg/mL
same,MIC,"[7]; 48 h, pH 4, fluconazole-resistant isolate 10, pH 4, 48 h, read-out: MIC",64 µg/mL
same,MIC,"[7]; 48 h, pH 7, fluconazole-resistant isolate 1, pH 7, 48 h, read-out: MIC",16 µg/mL
same,MIC,"[7]; 48 h, pH 7, fluconazole-resistant isolate 2, pH 7, 48 h, read-out: MIC",16 µg/mL
same,MIC,"[7]; 48 h, pH 7, fluconazole-resistant isolate 3, pH 7, 48 h, read-out: MIC",16 µg/mL
same,MIC,"[7]; 48 h, pH 7, fluconazole-resistant isolate 4, pH 7, 48 h, read-out: MIC",8 µg/mL
same,MIC,"[7]; 48 h, pH 7, fluconazole-resistant isolate 5, pH 7, 48 h, read-out: MIC",> 64 µg/mL
same,MIC,"[7]; 48 h, pH 7, fluconazole-resistant isolate 6, pH 7, 48 h, read-out: MIC",0.25 µg/mL
same,MIC,"[7]; 48 h, pH 7, fluconazole-resistant isolate 7, pH 7, 48 h, read-out: MIC",16 µg/mL
same,MIC,"[7]; 48 h, pH 7, fluconazole-resistant isolate 8, pH 7, 48 h, read-out: MIC",32 µg/mL
same,MIC,"[7]; 48 h, pH 7, fluconazole-resistant isolate 9, pH 7, 48 h, read-out: MIC",> 64 µg/mL
same,MIC,"[7]; 48 h, pH 7, fluconazole-resistant isolate 10, pH 7, 48 h, read-out: MIC",16 µg/mL
same,MIC90,"[7]; 60 isolates, pH 4, 24 h, read-out: MIC90",8 µg/mL
same,MIC90,"[7]; 60 isolates, pH 4, 48 h, read-out: MIC90",> 64 µg/mL
same,MIC90,"[7]; 60 isolates, pH 7, 24 h, read-out: MIC90",8 µg/mL
same,MIC90,"[7]; 60 isolates, pH 7, 48 h, read-out: MIC90",16 µg/mL
same,Susceptibility to FLU (S/R),[11]; C. krusei ATCC 6258,R
same,Susceptibility to FLU (S/R),[11]; C. krusei ATCC 14243,R
